Measurements published in ChEMBL document CHEMBL4699472, “Novel potent and selective pyrazolylpyrimidine-based SYK inhibitors” (Bioorg Med Chem Lett, 2020).

Columns and labels:
[1] = target: Tyrosine-protein kinase SYK (Homo sapiens, UniProt P43405); assay: Inhibition of SYK (unknown origin)
[2] = Lipophilicity, logD of compound in buffer:octanol (100:1) at pH 7.4 by shake flask method; format: physicochemical
[3] = Intrinsic clearance in rat hepatocytes measured per million cells; format: ADME, cell-based, Hepatocyte; details: read-out: CLH
[4] = Intrinsic clearance in human liver microsomes; format: ADME, Microsome; details: read-out: CLH
SUD4 = assay: Growth inhibition of human SU-DHL-4 cells after 72 hrs; format: functional
[5] = Clearance in Han Wistar rat at 2 umol/kg, po and 1 umol/kg, iv; format: ADME, organism-based; details: in vivo, dose 1 µmol/kg
[6] = Volume of distribution at steady state in Han Wistar rat at 2 umol/kg, po and 1 umol/kg, iv; format: ADME, organism-based; details: in vivo, dose 1 µmol/kg, read-out: Vdss
[7] = Oral bioavailability in Han Wistar rat at 2 umol/kg; format: ADME, organism-based; details: in vivo, at 2 µmol/kg
[8] = Protein binding in Han Wistar rat plasma assessed as unbound fraction; format: ADME, cell-free
[9] = target: Voltage-gated inwardly rectifying potassium channel KCNH2 (Homo sapiens, UniProt Q12809); assay: Inhibition of human ERG assessed as tail current by plate-based planar patch clamp assay
Sequence of Voltage-gated inwardly rectifying potassium channel KCNH2 (Q12809 whole entry): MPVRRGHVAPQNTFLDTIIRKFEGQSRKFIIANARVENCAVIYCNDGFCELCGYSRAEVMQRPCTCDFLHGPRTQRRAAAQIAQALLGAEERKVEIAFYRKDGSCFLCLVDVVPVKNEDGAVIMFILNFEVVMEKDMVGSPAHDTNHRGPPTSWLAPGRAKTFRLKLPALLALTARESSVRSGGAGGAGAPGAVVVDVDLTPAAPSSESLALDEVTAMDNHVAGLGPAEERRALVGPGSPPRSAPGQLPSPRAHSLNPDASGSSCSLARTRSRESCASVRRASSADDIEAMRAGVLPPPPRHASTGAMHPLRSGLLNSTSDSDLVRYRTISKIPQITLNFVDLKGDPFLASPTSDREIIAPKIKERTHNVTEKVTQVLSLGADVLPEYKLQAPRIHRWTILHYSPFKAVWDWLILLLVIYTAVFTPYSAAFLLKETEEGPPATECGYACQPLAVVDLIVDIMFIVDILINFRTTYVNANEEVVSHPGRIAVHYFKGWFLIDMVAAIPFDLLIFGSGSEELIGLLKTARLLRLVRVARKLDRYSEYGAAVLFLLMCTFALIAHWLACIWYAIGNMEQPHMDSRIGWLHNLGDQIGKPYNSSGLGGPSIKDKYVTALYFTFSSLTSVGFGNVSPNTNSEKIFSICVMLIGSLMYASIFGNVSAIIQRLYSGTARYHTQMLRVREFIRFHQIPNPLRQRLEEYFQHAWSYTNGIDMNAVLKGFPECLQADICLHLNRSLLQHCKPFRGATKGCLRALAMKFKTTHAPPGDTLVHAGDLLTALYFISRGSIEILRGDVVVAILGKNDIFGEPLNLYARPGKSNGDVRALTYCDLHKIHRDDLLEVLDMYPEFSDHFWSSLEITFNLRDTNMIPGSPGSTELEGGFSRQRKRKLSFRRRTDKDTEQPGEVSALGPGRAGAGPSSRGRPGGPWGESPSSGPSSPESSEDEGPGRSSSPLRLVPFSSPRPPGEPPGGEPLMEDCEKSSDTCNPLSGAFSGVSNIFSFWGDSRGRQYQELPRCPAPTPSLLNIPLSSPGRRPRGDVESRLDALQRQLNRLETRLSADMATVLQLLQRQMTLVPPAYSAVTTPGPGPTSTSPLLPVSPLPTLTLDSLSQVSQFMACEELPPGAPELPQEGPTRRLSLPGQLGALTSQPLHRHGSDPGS

[10] = Dissociation constant, pKa of the compound; format: physicochemical
[11] = Clearance in Beagle dog at 2 umol/kg, po and 1 umol/kg, iv; format: ADME, organism-based, Canis lupus familiaris; details: in vivo, dose 2 µmol/kg
[12] = Volume of distribution at steady state in Beagle dog at 2 umol/kg, po and 1 umol/kg, iv; format: ADME, organism-based, Canis lupus familiaris; details: in vivo, dose 2 µmol/kg, read-out: Vdss
[13] = Oral bioavailability in Beagle dog at 2 umol/kg; format: ADME, organism-based, Canis lupus familiaris; details: in vivo, at 2 µmol/kg
[14] = Protein binding in Beagle dog plasma assessed as unbound fraction; format: ADME, cell-free, Canis lupus familiaris
[15] = Intrinsic clearance in dog hepatocytes measured per million cells; format: ADME, cell-based, Canis lupus familiaris, Hepatocyte; details: read-out: CLH
[16] = Clearance in Beagle dog at 2 umol/kg, po and 1 umol/kg, iv relative to hepatic blood flow; format: ADME, organism-based, Canis lupus familiaris; details: in vivo, at 2 µmol/kg

SMILES	IC50 [1] [nM]	logD [2]	hepatocyte CLint [3] [µL/min/1e6 cells]	microsomal CLint [4] [µL/min/mg]	GI50 (SUD4) [nM]	IC50 [9] [µM]	also measured
CNC(=O)c1nn(C)c2ccc(Nc3nccc(-n4cc(N[C@@H]5CCOC[C@@H]5N)c(C)n4)n3)cc12	0.34	1.6	8	32	560	–	clearance [5]: 76 mL/min/kg; Vd [6]: 5.4 L/kg; bioavailability [7]: 3.8%; fraction unbound [8]: 0.25
Cc1nn(-c2ccnc(Nc3ccc4c(c3)c(Cl)nn4C)n2)cc1N[C@@H]1CCOC[C@@H]1N	62	–	–	–	–	–	–
CNC(=O)c1nn(C)c2ccc(Nc3nccc(-n4cc(N[C@@H]5CCNC5)c(C)n4)n3)cc12	0.6	0.3	3	< 10	170	> 39	clearance [5]: 60 mL/min/kg; Vd [6]: 13 L/kg; bioavailability [7]: 0%; fraction unbound [8]: 0.24; pKa [10]: 9.5
CNC(=O)c1nn(C)c2ccc(Nc3nccc(-n4cc(NC5CNC5)c(C)n4)n3)cc12	1.5	0.7	< 1	8	–	–	–
CNC(=O)c1nn(C)c2ccc(Nc3nccc(-n4cc(O[C@H]5CNC[C@H]5F)c(C)n4)n3)cc12	0.4	2.9	25	44	1400	–	–
CNC(=O)c1nn(C)c2ccc(Nc3nccc(-n4cc(O[C@@H]5CCNC5)c(C)n4)n3)cc12	0.51	1.4	13	< 5	510	5.2	–
CNC(=O)c1nn(C)c2ccc(Nc3nccc(-n4cc(N[C@@H]5CCOC[C@@H]5N)cn4)n3)cc12	0.33	2.2	4	17	220	15	clearance [5]: 82 mL/min/kg; Vd [6]: 9.8 L/kg; bioavailability [7]: 1.8%; fraction unbound [8]: 0.28; clearance [11]: 16 mL/min/kg; Vd [12]: 5.7 L/kg; bioavailability [13]: 2%; fraction unbound [14]: 0.27; hepatocyte CLint [15]: < 1 µL/min/1e6 cells; CL [16]: 40%
CNC(=O)c1nn(C)c2ccc(Nc3nccc(-n4cc(OC5CNC5)c(C)n4)n3)cc12	1.3	1.9	13	< 3	–	–	–
Cc1nn(-c2ccnc(Nc3ccc4c(c3)c(C(=O)C(F)(F)F)cn4C)n2)cc1N[C@@H]1CCOC[C@@H]1N	0.22	2.4	8	71	–	4.7	–
CNC(=O)c1nc(C)n2ccc(Nc3nccc(-n4cc(N[C@@H]5CCOC[C@@H]5N)cn4)n3)cc12	–	1.7	14	20	260	> 39	–
CNC(=O)c1nn(C)c2ccc(Nc3nccc(-n4cc(N[C@H]5CCNC5)c(C)n4)n3)cc12	11	–	–	–	–	–	–
CNC(=O)c1nn(C)c2ccc(Nc3nccc(-n4cc(N[C@@H]5CCCNC5)c(C)n4)n3)cc12	0.73	0.6	3	< 5	300	> 39	clearance [5]: 78 mL/min/kg; Vd [6]: 19 L/kg; bioavailability [7]: 0%; fraction unbound [8]: 0.33
CNC(=O)c1nn(C)c2ccc(Nc3nccc(-n4cc(O[C@H]5CCNC5)c(C)n4)n3)cc12	2.9	–	–	–	–	–	–
CNC(=O)c1nn(C)c2ccc(Nc3nccc(-n4cc(NCC5(N)CC5)c(C)n4)n3)cc12	0.34	2.3	8	28	2800	–	clearance [5]: 13 mL/min/kg; Vd [6]: 1.3 L/kg; bioavailability [7]: 29%; fraction unbound [8]: 0.056
CNC(=O)c1nc(C)n2ccc(Nc3nccc(-n4cc(OCCN)cn4)n3)cc12	0.88	0.6	14	7	–	> 39	–
CNC(=O)c1nn(C)c2ccc(Nc3nccc(-n4cc(N[C@H]5CNC[C@@H]5F)c(C)n4)n3)cc12	0.3	1.7	8	28	970	19	pKa [10]: 7.8
CNC(=O)c1nn(C)c2ccc(Nc3nccc(-n4cc(O[C@@H]5CCCNC5)c(C)n4)n3)cc12	0.19	1.7	9	8	350	2.5	–
CNC(=O)c1nn(C)c2ccc(Nc3nccc(-n4cc(CN(C)C)c(C)n4)n3)cc12	–	–	–	–	240	–	–
Cc1nnc(-c2nn(C)c3ccc(Nc4nccc(-n5cc(N[C@@H]6CCOC[C@@H]6N)c(C)n5)n4)cc23)o1	0.2	3.1	17	129	1300	11	–
CNC(=O)c1nc(C)n2ccc(Nc3nccc(-n4cc(NCCN)cn4)n3)cc12	0.23	–	2	< 3	–	> 39	–
CNC(=O)c1nc(C)n2ccc(Nc3nccc(-n4cc(N[C@@H]5CCOC[C@@H]5N)c(C)n4)n3)cc12	3.2	1.6	6	32	810	> 39	–
CNC(=O)c1nn(C)c2ccc(Nc3nccc(-n4cc(N[C@@H]5CCN(C)C5)c(C)n4)n3)cc12	7.9	2	–	–	–	–	–
CNC(=O)c1nc(C)n2ccc(Nc3nccc(-n4cc(CN(C)C)cn4)n3)cc12	0.24	1.3	13	20	230	7.1	–
Cc1nn(-c2ccnc3[nH]c(-c4cccc5c4ccn5C)nc23)cc1CN(C)C	–	–	–	37	–	–	–
